{"source": "patent US10961231B2", "about": "“NTCP inhibitors” (National Institute of Biological Sciences, Beijing, priority 2018, dated 2021)"}
{"target": "T1, NTCP (Homo sapiens, UniProt Q14973)", "T1 sequence (Q14973 1-349)": "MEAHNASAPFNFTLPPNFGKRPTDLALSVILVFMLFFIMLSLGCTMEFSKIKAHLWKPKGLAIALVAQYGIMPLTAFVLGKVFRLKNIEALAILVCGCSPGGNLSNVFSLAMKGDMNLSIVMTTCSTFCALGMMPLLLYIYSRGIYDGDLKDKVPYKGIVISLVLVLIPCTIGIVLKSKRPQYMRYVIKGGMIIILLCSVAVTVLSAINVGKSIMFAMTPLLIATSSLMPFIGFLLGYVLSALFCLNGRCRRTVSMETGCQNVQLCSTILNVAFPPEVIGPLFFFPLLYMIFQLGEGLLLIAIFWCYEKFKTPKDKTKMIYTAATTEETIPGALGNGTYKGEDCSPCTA", "experiment": "[3H]-TCA uptake assay (NTCP inhibition)", "type": "cell-based", "conditions": "IC50, given as a range, marked * (asterisk not explained)", "summary_of_the_method": "(§1)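 Read-out is liquid scintillation counting of Triton X-100 lysates after 15 min, 37° C uptake of 1 μM [3H]-taurocholate in Na+ Ringer's buffer (145 mM Na). Beforehand, PTH and HepG2-NTCP cells had 24 h in PMM for NTCP induction and 2 h of compound or DMSO treatment.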", "units": {"IC50": "nM"}}
{"smiles": "CCC1NC(=O)C(C2OC(Oc3cccc(OCC4CCOCC4)c3)CC2C)N(C)C(=O)C(C(C)C)N(C)C(=O)C(CC(C)C)N(C)C(=O)C(CC(C)C)N(C)C(=O)C(C)NC(=O)C(C)NC(=O)C(CC(C)C)N(C)C(=O)C(C(C)C)NC(=O)C(CC(C)C)N(C)C(=O)CN(C)C1=O", "note": "(stereo not shown) [Compound 33A-o]", "IC50": "1000 to 100000"}
{"smiles": "CCC1NC(=O)C(C2OC(Oc3cccc(OC(C)c4ccccc4)c3)CC2C)N(C)C(=O)C(C(C)C)N(C)C(=O)C(CC(C)C)N(C)C(=O)C(CC(C)C)N(C)C(=O)C(C)NC(=O)C(C)NC(=O)C(CC(C)C)N(C)C(=O)C(C(C)C)NC(=O)C(CC(C)C)N(C)C(=O)CN(C)C1=O", "note": "(stereo not shown) [Compound 34A-o]", "IC50": "1000 to 100000"}
{"smiles": "CCC1NC(=O)C(C2OC(Oc3cccc(OCCc4ccccc4)c3)CC2C)N(C)C(=O)C(C(C)C)N(C)C(=O)C(CC(C)C)N(C)C(=O)C(CC(C)C)N(C)C(=O)C(C)NC(=O)C(C)NC(=O)C(CC(C)C)N(C)C(=O)C(C(C)C)NC(=O)C(CC(C)C)N(C)C(=O)CN(C)C1=O", "note": "(stereo not shown) [Compound 35A-o]", "IC50": "1000 to 100000"}
{"smiles": "CCC1NC(=O)C(C2OC(Oc3c(OC)cccc3OC)CC2C)N(C)C(=O)C(C(C)C)N(C)C(=O)C(CC(C)C)N(C)C(=O)C(CC(C)C)N(C)C(=O)C(C)NC(=O)C(C)NC(=O)C(CC(C)C)N(C)C(=O)C(C(C)C)NC(=O)C(CC(C)C)N(C)C(=O)CN(C)C1=O", "note": "(stereo not shown) [Compound 36A-o]", "IC50": "1000 to 100000"}
{"smiles": "CCC1NC(=O)C(C2OC(Oc3ccc(OC)c(OC)c3)CC2C)N(C)C(=O)C(C(C)C)N(C)C(=O)C(CC(C)C)N(C)C(=O)C(CC(C)C)N(C)C(=O)C(C)NC(=O)C(C)NC(=O)C(CC(C)C)N(C)C(=O)C(C(C)C)NC(=O)C(CC(C)C)N(C)C(=O)CN(C)C1=O", "note": "(stereo not shown) [Compound 37A-o]", "IC50": "1000 to 100000"}
{"smiles": "CCC1NC(=O)C(C2OC(Oc3cc(OC)cc(OC)c3)CC2C)N(C)C(=O)C(C(C)C)N(C)C(=O)C(CC(C)C)N(C)C(=O)C(CC(C)C)N(C)C(=O)C(C)NC(=O)C(C)NC(=O)C(CC(C)C)N(C)C(=O)C(C(C)C)NC(=O)C(CC(C)C)N(C)C(=O)CN(C)C1=O", "note": "[Compound 38A-o, [2-((2R,3R)-5-(3,5-dimethoxphenoxy)-3-methyltetrahydrofuran-2-yl)-2-(methylamino)acetic acid]^1-cyclosporin A]", "IC50": "1000 to 100000"}
{"smiles": "CCC1NC(=O)C(C2OC(Oc3ccc(Cl)c(OC)c3)CC2C)N(C)C(=O)C(C(C)C)N(C)C(=O)C(CC(C)C)N(C)C(=O)C(CC(C)C)N(C)C(=O)C(C)NC(=O)C(C)NC(=O)C(CC(C)C)N(C)C(=O)C(C(C)C)NC(=O)C(CC(C)C)N(C)C(=O)CN(C)C1=O", "note": "(stereo not shown) [Compound 40A-o]", "IC50": "1000 to 100000"}
{"smiles": "CCOc1cc(OC2CC(C)C(C3C(=O)NC(CC)C(=O)N(C)CC(=O)N(C)C(CC(C)C)C(=O)NC(C(C)C)C(=O)N(C)C(CC(C)C)C(=O)NC(C)C(=O)NC(C)C(=O)N(C)C(CC(C)C)C(=O)N(C)C(CC(C)C)C(=O)N(C)C(C(C)C)C(=O)N3C)O2)ccc1Cl", "note": "(stereo not shown) [Compound 41A-o]", "IC50": "1000 to 100000"}
{"smiles": "CCCOc1cc(OC2CC(C)C(C3C(=O)NC(CC)C(=O)N(C)CC(=O)N(C)C(CC(C)C)C(=O)NC(C(C)C)C(=O)N(C)C(CC(C)C)C(=O)NC(C)C(=O)NC(C)C(=O)N(C)C(CC(C)C)C(=O)N(C)C(CC(C)C)C(=O)N(C)C(C(C)C)C(=O)N3C)O2)ccc1Cl", "note": "(stereo not shown) [Compound 42A-o]", "IC50": "1000 to 100000"}
{"smiles": "CCC1NC(=O)C(C2OC(Oc3ccc(Cl)c(OCC4CCOCC4)c3)CC2C)N(C)C(=O)C(C(C)C)N(C)C(=O)C(CC(C)C)N(C)C(=O)C(CC(C)C)N(C)C(=O)C(C)NC(=O)C(C)NC(=O)C(CC(C)C)N(C)C(=O)C(C(C)C)NC(=O)C(CC(C)C)N(C)C(=O)CN(C)C1=O", "note": "(stereo not shown) [Compound 43A-o]", "IC50": "1000 to 100000"}
{"smiles": "CCC1NC(=O)C(C2OC(Oc3ccc(Cl)c(OCc4ccccc4)c3)CC2C)N(C)C(=O)C(C(C)C)N(C)C(=O)C(CC(C)C)N(C)C(=O)C(CC(C)C)N(C)C(=O)C(C)NC(=O)C(C)NC(=O)C(CC(C)C)N(C)C(=O)C(C(C)C)NC(=O)C(CC(C)C)N(C)C(=O)CN(C)C1=O", "note": "(stereo not shown) [Compound 44A-o]", "IC50": "1000 to 100000"}
{"target": "T1, NTCP", "experiment": "[3H]-TCA uptake assay (NTCP inhibition)", "type": "cell-based", "conditions": "IC50, given as a range; assay not given", "summary_of_the_method": "as §1", "units": {"IC50": "nM"}}
{"smiles": "CCC1NC(=O)C(C2OC(Sc3c(OC)cccc3OC)CC2C)N(C)C(=O)C(C(C)C)N(C)C(=O)C(CC(C)C)N(C)C(=O)C(CC(C)C)N(C)C(=O)C(C)NC(=O)C(C)NC(=O)C(CC(C)C)N(C)C(=O)C(C(C)C)NC(=O)C(CC(C)C)N(C)C(=O)CN(C)C1=O", "note": "[Compound 36A, [2-((2R,3R)-5-(2,6-dimethoxyphenylthio)-3-methyltetrahydrofuran-2-yl)-2-(methylamino)acetic acid]^1-cyclosporin A]", "IC50": "1000 to 10000"}
{"target": "T1, NTCP", "experiment": "[3H]-TCA uptake assay (NTCP inhibition)", "type": "cell-based", "conditions": "given as a range; assay not given", "summary_of_the_method": "as §1", "units": {"IC50": "nM"}}
{"smiles": "CCC1NC(=O)C(C2OC(Sc3cccc(OC(C)c4ccccc4)c3)CC2C)N(C)C(=O)C(C(C)C)N(C)C(=O)C(CC(C)C)N(C)C(=O)C(CC(C)C)N(C)C(=O)C(C)NC(=O)C(C)NC(=O)C(CC(C)C)N(C)C(=O)C(C(C)C)NC(=O)C(CC(C)C)N(C)C(=O)CN(C)C1=O", "note": "[Compound 34A, [2-((2R,3R)-3-methyl-5-(3-(1-phenylethoxy)phenylthio)tetrahydrofuran-2-yl)-2-(methylamino)acetic acid]^1-cyclosporin A]", "IC50": "1 to 1000"}
{"smiles": "CCC1NC(=O)C(C2OC(Sc3cccc(OCCc4ccccc4)c3)CC2C)N(C)C(=O)C(C(C)C)N(C)C(=O)C(CC(C)C)N(C)C(=O)C(CC(C)C)N(C)C(=O)C(C)NC(=O)C(C)NC(=O)C(CC(C)C)N(C)C(=O)C(C(C)C)NC(=O)C(CC(C)C)N(C)C(=O)CN(C)C1=O", "note": "[Compound 35A, [2-((2R,3R)-3-methyl-5-(3-phenethoxyphenylthio)tetrahydrofuran-2-yl)-2-(methylamino)acetic acid]^1-cyclosporin A]", "IC50": "1 to 1000"}
{"smiles": "CCC1NC(=O)C(C2OC(Sc3ccc(OC)c(OC)c3)CC2C)N(C)C(=O)C(C(C)C)N(C)C(=O)C(CC(C)C)N(C)C(=O)C(CC(C)C)N(C)C(=O)C(C)NC(=O)C(C)NC(=O)C(CC(C)C)N(C)C(=O)C(C(C)C)NC(=O)C(CC(C)C)N(C)C(=O)CN(C)C1=O", "note": "[Compound 37A, [2-((2R,3R)-5-(3,4-dimethoxyphenylthio)-3-methyltetrahydrofuran-2-yl)-2-(methylamino)acetic acid]^1-cyclosporin A]", "IC50": "1 to 1000"}
{"smiles": "CCC1NC(=O)C(C2OC(Sc3cc(OC)cc(OC)c3)CC2C)N(C)C(=O)C(C(C)C)N(C)C(=O)C(CC(C)C)N(C)C(=O)C(CC(C)C)N(C)C(=O)C(C)NC(=O)C(C)NC(=O)C(CC(C)C)N(C)C(=O)C(C(C)C)NC(=O)C(CC(C)C)N(C)C(=O)CN(C)C1=O", "note": "[Compound 38A, [2-((2R,3R)-5-(3,5-dimethoxyphenylthio)-3-methyltetrahydrofuran-2-yl)-2-(methylamino)acetic acid]^1-cyclosporin A]", "IC50": "1 to 1000"}
{"smiles": "CCOc1cc(OCC)cc(SC2CC(C)C(C3C(=O)NC(CC)C(=O)N(C)CC(=O)N(C)C(CC(C)C)C(=O)NC(C(C)C)C(=O)N(C)C(CC(C)C)C(=O)NC(C)C(=O)NC(C)C(=O)N(C)C(CC(C)C)C(=O)N(C)C(CC(C)C)C(=O)N(C)C(C(C)C)C(=O)N3C)O2)c1", "note": "[Compound 39A, [2-((2R,3R)-5-(3,5-diethoxyphenylthio)-3-methyltetrahydrofuran-2-yl)-2-(methylamino)acetic acid]^1-cyclosporin A]", "IC50": "1 to 1000"}
{"smiles": "CCC1NC(=O)C(C2OC(Sc3ccc(Cl)c(OC)c3)CC2C)N(C)C(=O)C(C(C)C)N(C)C(=O)C(CC(C)C)N(C)C(=O)C(CC(C)C)N(C)C(=O)C(C)NC(=O)C(C)NC(=O)C(CC(C)C)N(C)C(=O)C(C(C)C)NC(=O)C(CC(C)C)N(C)C(=O)CN(C)C1=O", "note": "[Compound 40A, [2-((2R,3R)-5-(4-chloro-3-methoxyphenylthio)-3-methyltetrahydrofuran-2-yl)-2-(methylamino)acetic acid]^1-cyclosporin A]", "IC50": "1 to 1000"}
{"smiles": "CCOc1cc(SC2CC(C)C(C3C(=O)NC(CC)C(=O)N(C)CC(=O)N(C)C(CC(C)C)C(=O)NC(C(C)C)C(=O)N(C)C(CC(C)C)C(=O)NC(C)C(=O)NC(C)C(=O)N(C)C(CC(C)C)C(=O)N(C)C(CC(C)C)C(=O)N(C)C(C(C)C)C(=O)N3C)O2)ccc1Cl", "note": "[Compound 41A, [2-((2R,3R)-5-(4-chloro-3-ethoxyphenylthio)-3-methyltetrahydrofuran-2-yl)-2-(methylamino)acetic acid]^1-cyclosporin A]", "IC50": "1 to 1000"}
{"smiles": "CCCOc1cc(SC2CC(C)C(C3C(=O)NC(CC)C(=O)N(C)CC(=O)N(C)C(CC(C)C)C(=O)NC(C(C)C)C(=O)N(C)C(CC(C)C)C(=O)NC(C)C(=O)NC(C)C(=O)N(C)C(CC(C)C)C(=O)N(C)C(CC(C)C)C(=O)N(C)C(C(C)C)C(=O)N3C)O2)ccc1Cl", "note": "[Compound 42A, [2-((2R,3R)-5-(4-chloro-3-propoxyphenylthio)-3-methyltetrahydrofuran-2-yl)-2-(methylamino)acetic acid]^1-cyclosporin A]", "IC50": "1 to 1000"}
{"smiles": "CCC1NC(=O)C(C2OC(Sc3ccc(Cl)c(OCC4CCOCC4)c3)CC2C)N(C)C(=O)C(C(C)C)N(C)C(=O)C(CC(C)C)N(C)C(=O)C(CC(C)C)N(C)C(=O)C(C)NC(=O)C(C)NC(=O)C(CC(C)C)N(C)C(=O)C(C(C)C)NC(=O)C(CC(C)C)N(C)C(=O)CN(C)C1=O", "note": "[Compound 43A, [2-((2R,3R)-5-(4-chloro-3-((tetrahydro-2H-pyran-4-yl)methoxy)phenylthio)-3-methyltetrahydrofuran-2-yl)-2-(methylamino)acetic acid]^1-cyclosporin A]", "IC50": "1 to 1000"}
{"smiles": "CCC1NC(=O)C(C2OC(Sc3ccc(Cl)c(OCc4ccccc4)c3)CC2C)N(C)C(=O)C(C(C)C)N(C)C(=O)C(CC(C)C)N(C)C(=O)C(CC(C)C)N(C)C(=O)C(C)NC(=O)C(C)NC(=O)C(CC(C)C)N(C)C(=O)C(C(C)C)NC(=O)C(CC(C)C)N(C)C(=O)CN(C)C1=O", "note": "[Compound 44A, [2-((2R,3R)-5-(3-(benzyloxy)-4-chlorophenylthio)-3-methyltetrahydrofuran-2-yl)-2-(methylamino)acetic acid]^1-cyclosporin A]", "IC50": "1 to 1000"}
